For 55 molecules, EC50 results are on record in BindingDB's records for doi:10.7270/Q2ZC817P (The Scripps Research Institute Molecular Screening Center, 2007).

Each structure is given as a SMILES string. Counter-ions that a name gives are not always drawn.

In the first assay the target is Sphingosine 1-phosphate receptor 1 (Homo sapiens, UniProt P21453). The assay can be described thus: S1P1 agonism potentiation – cell-based, potentiator mode, 60K MLSMR set, dose response (AID 466).
Chain of Sphingosine 1-phosphate receptor 1 (P21453 whole entry): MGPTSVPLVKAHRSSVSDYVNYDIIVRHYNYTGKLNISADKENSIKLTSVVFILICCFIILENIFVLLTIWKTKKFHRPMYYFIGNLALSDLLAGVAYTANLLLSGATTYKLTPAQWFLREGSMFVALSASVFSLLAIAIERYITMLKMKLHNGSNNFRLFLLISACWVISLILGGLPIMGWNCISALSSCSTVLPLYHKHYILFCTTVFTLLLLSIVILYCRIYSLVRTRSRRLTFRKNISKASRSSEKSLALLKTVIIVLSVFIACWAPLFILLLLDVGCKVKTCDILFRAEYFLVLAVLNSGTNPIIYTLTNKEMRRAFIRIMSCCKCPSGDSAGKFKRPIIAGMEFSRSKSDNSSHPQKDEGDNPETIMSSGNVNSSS
Settings: not given
Regarding `Cc1oc(-c2ccccc2)nc1Cn1cccc1C1=NC(c2ccccc2)CO1` (stereo not given) [SMR000026251], the EC50 was 0.692 µM.

Consider `O=C(c1ccccc1)C(CCC(CN1CCOCC1)C(=O)c1ccccc1)CN1CCOCC1` (stereo not given) [2,5-bis(4-morpholinylmethyl)-1,6-diphenylhexane-1,6-dione;hydrochloride], for which the EC50 turned out to be 4.14 µM.

With `Cc1cc(N2CCN(C/C=C/c3ccccc3)CC2)n2ncnc2n1` [5-Methyl-7-[4-((E)-3-phenyl-allyl)-piperazin-1-yl]-[1,2,4]triazolo[1,5-a]pyrimidine], the EC50 was above 30 µM.

Consider `CCOc1ccc(-c2nnc(-c3cccnc3)o2)cc1OCC` [2-(3,4-diethoxyphenyl)-5-(3-pyridinyl)-1,3,4-oxadiazole], for which the EC50 worked out at 2.33 µM.

Turning to `Oc1ccc(C2NCc3ccccc3-n3cccc32)cc1Cl` (stereo not given) [2-chloranyl-4-(5,6-dihydro-4H-pyrrolo[1,2-a][1,4]benzodiazepin-4-yl)phenol;hydrochloride], the EC50 turned out to be 2.83 µM.

With `Cc1ccc(-n2ncc3c(N4CCCC(C)C4)ncnc32)c(C)c1` (stereo not given) [1-(2,4-dimethylphenyl)-4-(3-methylpiperidin-1-yl)-1H-pyrazolo[3,4-d]pyrimidine], the EC50 came to 8.81 µM.

In the case of `COC(=O)c1ccc(OCC(O)Cn2nnc3ccccc32)cc1` (stereo not given) [4-[3-(1-benzotriazolyl)-2-hydroxypropoxy]benzoic acid methyl ester], the half-maximal effective concentration (EC50) is above 95 µM.

With `Cc1ccnc(SCC(=O)Nc2sc3c(c2C#N)CCCC3)n1` [MLS000077260], the concentration giving a half-maximal response (EC50) came out at 5.24 µM.

With `COc1ccc(-c2nc3cc(NC(=O)Cc4ccc(OC)c(OC)c4)ccc3o2)cc1` [2-(3,4-dimethoxyphenyl)-N-[2-(4-methoxyphenyl)-1,3-benzoxazol-5-yl]acetamide], the EC50 turned out to be 9.09 µM.

As for `CCCS(=O)(=O)c1nnnn1-c1cccc(OC)c1` [1-(3-methoxyphenyl)-5-(propylsulfonyl)-1H-tetrazole], the EC50 turned out to be 3.19 µM.

For the molecule `Cc1cc2nc(-c3ccc(NC(=O)C(C)C)cc3)oc2cc1C` [MLS000109473], the EC50 was 2.77 µM.

Turning to `Cc1cccc(OCCCCc2c(C)n[nH]c2C)c1C` [SMR000103133], the EC50 was found to be 4.86 µM.

As for `CCN(C(=O)C1CCCCC1)c1nnc(-c2cccnc2)s1` [Cyclohexanecarboxylic acid ethyl-(5-pyridin-3-yl-[1,3,4]thiadiazol-2-yl)-amide], the EC50 was 1.75 µM.

As to `COc1cc(-c2noc(C3CCCN(S(=O)(=O)c4cccc(Cl)c4)C3)n2)cc(OC)c1OC` (stereo not given) [1-(3-Chloro-benzenesulfonyl)-3-[3-(3,4,5-trimethoxy-phenyl)-[1,2,4]oxadiazol-5-yl]-piperidine], the EC50 was determined as 2.6 µM.

For the molecule `Cc1occc1C(=O)N1CCN(c2ccc(Cl)c(Cl)c2)CC1` [1-(3,4-dichlorophenyl)-4-(2-methyl-3-furoyl)piperazine], the concentration giving a half-maximal response (EC50) turned out to be 5.18 µM.

In the case of `CCc1cc(-c2n[nH]cc2-c2ccc3c(c2)OCO3)c(O)cc1O` [SMR000060132], the EC50 was 6.57 µM.

For the molecule `O=C(Nc1nccs1)c1ccc(S(=O)(=O)NCC2CCCCC2)cc1` [4-(Cyclohexylmethyl-sulfamoyl)-N-thiazol-2-yl-benzamide], the EC50 was 7.5 µM.

On to `COC(=O)c1cc(CSc2nnc(-c3ccccc3)c(-c3ccccc3)n2)oc1C` [5-[[(5,6-diphenyl-1,2,4-triazin-3-yl)thio]methyl]-2-methyl-3-furancarboxylic acid methyl ester], for which the EC50 worked out at 1.05 µM.

In the case of `CCCCn1nnnc1SCC(=O)c1ccc(C)c(C)c1` [2-(1-Butyl-1H-tetrazol-5-ylsulfanyl)-1-(3,4-dimethyl-phenyl)-ethanone], the EC50 turned out to be 6.19 µM.

As to `O=C(Nc1ccc(N2CCCC2)c(Cl)c1)c1ccc(Br)o1` [5-bromanyl-N-(3-chloranyl-4-pyrrolidin-1-yl-phenyl)furan-2-carboxamide], the EC50 amounted to 3.76 µM.

`CC1CCCC(C)N1C(=O)CN1CCN(c2nc(-c3ccc(F)cc3)cs2)CC1` (stereo not given) [1-(2,6-Dimethyl-piperidin-1-yl)-2-{4-[4-(4-fluoro-phenyl)-thiazol-2-yl]-piperazin-1-yl}-ethanone]: the EC50 is above 10 µM.

Regarding `O=C(CSc1nc2ccccc2o1)Nc1ccc(N2CCOCC2)c(Cl)c1` [2-(1,3-benzoxazol-2-ylsulfanyl)-N-(3-chloranyl-4-morpholin-4-yl-phenyl)ethanamide], the EC50 was determined as 1.25 µM.

As for `Nc1nonc1C(=O)NCCNCc1cc(Br)ccc1OCc1ccccc1F` [4-amino-N-[2-[[5-bromo-2-(2-fluorobenzyl)oxy-benzyl]amino]ethyl]furazan-3-carboxamide;hydrochloride], the EC50 worked out at 8.9 µM.

Regarding `Clc1ccccc1C1=Nn2c(nnc2-c2ccncc2)SC1` [6-(2-chlorophenyl)-3-(4-pyridyl)-7H-[1,2,4]triazolo[3,4-b][1,3,4]thiadiazine], the 50% effective concentration (EC50) is 5.66 µM.

As to `CC(C)N1C(=O)CCC1C(=O)N1CCC(Cc2ccccc2)CC1` (stereo not given) [5-(4-benzylpiperidine-1-carbonyl)-1-isopropyl-2-pyrrolidone], the EC50 is above 95 µM.

Turning to `COc1ccc(NC(=O)c2cnn3c(C(F)(F)F)cc(-c4ccco4)nc23)cc1OC` [MLS000109325], the EC50 is above 95 µM.

Consider `CCOc1ccc(-c2nc(-c3ccccc3C)no2)cc1` [3-(o-tolyl)-5-p-phenetyl-1,2,4-oxadiazole], for which the half-maximal effective concentration (EC50) worked out at 1.52 µM.

In the case of `Cc1cc(C(=O)CSc2nnnn2-c2ccc(O)cc2)c(C)n1Cc1ccc2c(c1)OCO2` [1-(2,5-dimethyl-1-piperonyl-pyrrol-3-yl)-2-[[1-(4-hydroxyphenyl)tetrazol-5-yl]thio]ethanone], the EC50 amounted to 6.14 µM.

`Cc1cc(C=Nn2cnnc2)c(C)n1-c1ccc(OCc2ccccc2F)cc1` [MLS000112180]: the EC50 came out at 0.803 µM.

Turning to `CN1/C(=C/C(=O)c2nc(S(C)(=O)=O)ncc2Cl)C(C)(C)c2ccccc21`, the concentration giving a half-maximal response (EC50) amounted to 9.04 µM.

For the molecule `Cc1ccc(O)c(NC(=O)CCC2CCCCC2)c1` [3-cyclohexyl-N-(2-hydroxy-5-methyl-phenyl)propionamide], the EC50 was above 95 µM.

`N#Cc1nc(COc2ccc(Cl)cc2Cl)oc1N1CCN(c2ccccc2)CC1` [2-[(2,4-dichlorophenoxy)methyl]-5-(4-phenyl-1-piperazinyl)-4-oxazolecarbonitrile]: the EC50 is above 10 µM.

On to `Cc1ccc(-n2c(C)cc(C(=O)COC(=O)c3c(C)noc3C)c2C)cc1` [3,5-dimethyl-4-isoxazolecarboxylic acid [2-[2,5-dimethyl-1-(4-methylphenyl)-3-pyrrolyl]-2-oxoethyl] ester], for which the EC50 was determined as 7.98 µM.

Take `CC1Cc2ccccc2N1c1ncnc2nc[nH]c12` (stereo not given) [SMR000017649]: the concentration giving a half-maximal response (EC50) is 7.03 µM.

Regarding `Cc1cccc(N2CCN(C(=O)CSCc3c(C)noc3C)CC2)c1C` [2-[(3,5-dimethyl-1,2-oxazol-4-yl)methylsulfanyl]-1-[4-(2,3-dimethylphenyl)piperazin-1-yl]ethanone], the EC50 turned out to be 4.41 µM.

With `COc1cc2c(cc1OC)C(C)N(C(=O)c1cc3ccccc3o1)CC2` (stereo not given) [1-benzofuran-2-yl-(6,7-dimethoxy-1-methyl-3,4-dihydro-1H-isoquinolin-2-yl)methanone], the EC50 was above 30 µM.

Consider `Nc1nnnn1N=C/C(Br)=C/c1ccccc1` [1-[[(Z)-2-bromanyl-3-phenyl-prop-2-enylidene]amino]-1,2,3,4-tetrazol-5-amine], for which the 50% effective concentration (EC50) was above 10 µM.

For `CCCC(=O)N1CCN(c2ccc(NC(=O)c3cc4ccccc4o3)cc2Cl)CC1` [MLS000096729], the concentration for a half-maximal effect (EC50) was found to be 8.63 µM.

Regarding `Nc1nonc1C(=O)NCCNCc1cc(Br)ccc1OCc1ccc(F)cc1` [4-amino-N-[2-[[5-bromo-2-(4-fluorobenzyl)oxy-benzyl]amino]ethyl]furazan-3-carboxamide;hydrochloride], the EC50 stood at 7.81 µM.

Consider `CCCc1cc(C(=O)Nc2sc3c(c2C#N)CCC3)no1` [MLS000116386], for which the EC50 is above 95 µM.

Regarding `c1ccc(N2CCN(c3ncnc4c3oc3ccccc34)CC2)cc1` [4-(4-phenyl-1-piperazinyl)benzofuro[3,2-d]pyrimidine], the EC50 was above 95 µM.

In the case of `O=C(Nc1ccc(S(=O)(=O)NCc2ccco2)cc1)c1ccc2ccccc2n1` [MLS000098663], the EC50 was determined as 6.51 µM.

In the case of `O=S1(=O)C=C(Sc2nc3cc(Cl)ccc3o2)c2ccccc21` [SMR000019512], the EC50 was above 30 µM.

The same assay, now with this note: inactive by the depositor's call.
Take `CC/N=c1\sc(C(=O)NCCc2ccccc2)cc(=O)n1CC` [3-Ethyl-2-[(Z)-ethylimino]-4-oxo-3,4-dihydro-2H-[1,3]thiazine-6-carboxylic acid phenethyl-amide]: the EC50 is 23.1 µM.

As to `CC1=CC(C)(C)Nc2ccc(OC(=O)c3ccco3)cc21`, the EC50 worked out at 18 µM.

For the molecule `CCCn1c(NC(=O)c2cccc(S(=O)(=O)N3CCCC3)c2)nc2ccccc21` [MLS000057540], the EC50 came out at 10.3 µM.

In the case of `Cc1ccc(C(=O)Nc2nc(COc3ccccc3)cs2)s1` [5-methyl-N-[4-(phenoxymethyl)-1,3-thiazol-2-yl]thiophene-2-carboxamide], the half-maximal effective concentration (EC50) stood at 11.2 µM.

In the case of `Cc1ccccc1CS(=O)(=O)c1nnc([C@H](CC(C)C)NC(=O)OC(C)(C)C)o1` [SMR000044673], the EC50 is 10.1 µM.

Consider `Cc1ccc(S(=O)(=O)Nc2cccc3ncccc23)s1` [5-methyl-N-quinolin-5-ylthiophene-2-sulfonamide], for which the 50% effective concentration (EC50) stood at 27.6 µM.

For `C=CCn1c(SCC(=O)c2cccs2)nc2sc(CC)cc2c1=O` [3-allyl-6-ethyl-2-[[2-keto-2-(2-thienyl)ethyl]thio]thieno[2,3-d]pyrimidin-4-one], the EC50 turned out to be 38.8 µM.

Regarding `COC(=O)c1ccc(CSc2nc3ccccc3c(=O)n2Cc2ccco2)o1` [5-[[[3-(2-furanylmethyl)-4-oxo-2-quinazolinyl]thio]methyl]-2-furancarboxylic acid methyl ester], the EC50 turned out to be 40.4 µM.

With `Cc1cc(C)n(-c2nc3ccccc3c(=O)n2OCCOc2ccccc2)n1` [2-(3,5-dimethyl-1-pyrazolyl)-3-(2-phenoxyethoxy)-4-quinazolinone], the EC50 was found to be 15 µM.

`CC1Cc2cc(-c3csc(NC(=O)Cc4cccs4)n3)ccc2N1S(C)(=O)=O` (stereo not given) [MLS000027766]: the EC50 was 10.4 µM.

On to `Cc1ccc(Cl)cc1N1CCN(C(=O)C2CCN(c3nnc(-n4cccc4)s3)CC2)CC1` [MLS000119702], for which the EC50 came out at 43.3 µM.

As to `COc1ccc2c(c1)CCc1c(C(=O)NC3CCCCC3)noc1-2` [MLS000087437], the EC50 stood at 88.9 µM.

One may read the EC50 as the concentration giving half of the maximal effect.
